Assay results published in patent US9409904B2, “Compounds and compositions for use in augmentation of glucose” (YISSUM RESEARCH DEVELOPMENT COMPANY OF THE HEBREW …, priority 2011, dated 2016).
“Also recorded” adds a separate entry of the source.

Legend:
GLUT4myc = assay: Colorimetric determination of surface GLUT4myc in L6 myotubes; format: cell-based
Procedure: The colorimetric detection of surface GLUT4myc or GLUT1myc in L6 myotubes was performed as described in [7]. Briefly, cultured myotubes were incubated with rabbit anti-C-Myc antibody (1:200 dilution), washed and fixed with 3% formaldehyde, and further interacted with goat HRP-conjugated anti-rabbit IgG (1:2000 dilution). Following the washes, a solution of OPD was added, and the culture plates were taken for absorbance measurement at 492 nM to estimate the relative abundance of GLUT1myc or GLUT4myc on the plasma membrane of the myotubes. The GLUT1myc and GLUT4myc L6 cell cultures were the courtesy of Dr. A. Klip, Hospital for Sick Children (Toronto, ON, Canada).
The capacity of compound 34 to increase the rate of glucose uptake by increasing GLUT4 content in the plasma membrane of myotubes was tested. […] The cells expressing GLUT1myc or GLUT4myc were treated with 25 μM of 34 or DMSO as described above. At the end of the incubation, the cultures were taken for immunodetection of surface GLUT1myc (open bars) or GLUT4myc (black bars), as described herein above.

L6 myotubes [1] = assay: [3H]-2-deoxy-D-glucose (dGlc) uptake assay in L6 myotubes; format: cell-based
Procedure: The effect of the various derivatives on the rate of glucose uptake in L6 myotubes was investigated. […] The abundance of GLUT1 and GLUT4 in the plasma membranes of L6 myotubes was determined in cells expressing GLUT-1myc or GLUT-4myc, as described before. […] In addition, the effect of compounds on the glucose—stimulated insulin secretion (GSIS) was investigated.
L6 myotubes were maintained as described in [21]. All experiments were conducted on fully differentiated myotubes.
The rate of [^3H]dGlc uptake in myotubes, in the absence or presence of insulin, was determined as described in [21]. […] […] The cultures were then rinsed 3 times with PBS at room temperature and incubated with PBS, pH 7.4, containing 0.1 mM dGlc and 1.0 μCi/ml [^3H]dGlc for 5 minutes at room temperature. At the end of the assay, the myotubes were lysed in 0.1% (w/v) SDS in water and taken for liquid scintillation.

GLUT4 = assay: Total GLUT4 content in whole cell lysates of L6 myotubes, Western blot; format: cell-based
Procedure: (§1) Whole cell lysates were prepared as previously described with some minor modifications: the lysis buffer contained 50 mM Tris-HCl, pH 7.5, 1 mM EDTA, 1 mM EGTA, 1 mM Na3VO4, 150 mM NaCl, 50 mM NaF, 10 mM sodium-glycerophosphate, 5 mM sodium pyrophosphate, and 1 mM PMSF, supplemented with 0.1% (v/v) NP-40, 0.1% (v/v) 2-β-mercaptoethanol, and protease inhibitor cocktail (1:100 dilution). The cells were washed by ice-cold PBS, and 1 ml of lysis buffer was then added and incubated at 4° C. for 40 minutes. The resulting cell lysates were centrifuged at 8,700 g×30 minutes at 4° C. and the resulting supernatant fractions were separated and kept at −20° C. until used. Protein content in the supernatant was determined according to Bradford, using a BSA standard dissolved in the same buffer. Aliquots (5-60 μg of protein) were mixed with the sample buffer [62.5 mM Tris-HCl, pH 6.8, 2% (w/v) SDS, 10% (v/v) glycerol, 50 mM DTT, and 0.01% (w/v) bromophenol blue], heated at 95° C. for 5 minutes. Samples for Western blot analyses of GLUT1 and GLUT4 were prepared as described in [22]. The proteins were separated on 10% SDS-PAGE and Western blot analyses performed using antibodies according to our previously established protocols.

diabetic KKAy mice [2] = assay: Intraperitoneal glucose tolerance test (IP-GTT) in KKAy mice; format: in vivo
Source text: (§2) The effect of the various ethoxybenzo-thiazol derivatives on the blood glucose level in diabetic KKAy mice was investigated. The in vivo antihyperglycemic effect of the lead compound was investigated in hyperglycemic and hyperinsulinemic KKAy mice, an established animal model for T2DM, after subcutaneous injections. Venous blood samples from small tail clips were taken for glucose determination. Finally, to investigate the effect of the lead compound on whole body glucose disposal in the mice we performed standard IP-GTT tests following an overnight fast.
A standard IP-GTT test was performed on mice after an overnight fast. Glucose in saline was injected intraperitoneally (1.5 g/kg body weight). Venous blood samples from small tail clips were taken for glucose determination using a glucometer (FreeStyle Freedom, Abbott Diabetes Care, Alamada, Calif.).
(§3) The antihyperglycemic potential of 34 was investigated in an animal model of diabetes. Test compound was injected subcutaneously (75 mg per kg body weight, suspension in sesame oil, twice daily) to diabetic KKAy mice; control mice received the vehicle only. The blood glucose levels at day zero, 20.8±0.9 and 22.3±1.3 mM for the control and 34-treated groups, respectively, were taken as the reference 100% values in FIG. 4A. […] It should be noted, however, that despite the marked antihyperglycemic effects of 34, normoglycemia was not reached. To better evaluate the potential of 34, the glucose tolerance of treated KKAy mice was evaluated using a standard IP-GTT. The mice were treated with 34 as described above for two days, after which IP-GTT was performed after an overnight fast, as described. […] IP-GTT was performed following an overnight fast in mice treated with 34 or oil, as described herein above. […] The cells were grown in standard RPMI1640 complete culture medium, treated with 10 μM compound 20 and incubated for the indicate time periods. At the end of incubations the cells were taken for a standard GSIS assay described herein.

GLUT1 = assay: Total GLUT1 content in whole cell lysates of L6 myotubes, Western blot; format: cell-based
Procedure: as §1

diabetic KKAy mice [3] = assay: Blood glucose level in diabetic KKAy mice after subcutaneous injection; format: in vivo; settings: for reduction of blood glucose: 75 mg/kg s.c. twice daily in sesame oil
Source text: as §2
Diabetic male KKAy mice (8 to 12-week old, 20-25 g) were purchased from The Jackson Laboratory (Bar Harbor, Me.). The animals were routinely kept in 12-h light/dark cycles and provided with food and water ad libitum. Blood glucose levels at sacrifice ranged between 17-25 mmol/l. The ethics committee (IACUC) of the Hebrew University of Jerusalem approved the study protocol for animal welfare. The Hebrew University of Jerusalem is an AAALAC international accredited institution.
as §3

AMPK = assay: Thr172 phosphorylation of AMPK in L6 myotubes, Western blot of whole cell lysates; format: cell-based
Procedure: as §1, with “The effect of the various derivatives on the rate of glucose uptake in L6 myotubes was investigated. […] The abundance of GLUT1 and GLUT4 in the plasma membranes of L6 myotubes was determined in cells expressing GLUT-1myc or GLUT-4myc, as described before. […] In addition, the effect of compounds on the glucose—stimulated insulin secretion (GSIS) was investigated. Whole” for “Whole”, “Aliquots (5-60 μg of protein) were mixed with the sample buffer [62.5 mM Tris-HCl, pH 6.8, 2% (w/v) SDS, 10% (v/v) glycerol, 50 mM DTT, and 0.01% (w/v) bromophenol blue], heated at 95° C. for 5 minutes.” left out

L6 myotubes [4] = assay: Cytotoxic effects in L6 myotube cultures; format: cell-based; settings: above 100 μM

## CCOc1ccc2nc(SCc3nc4ccccc4s3)sc2c1 [Compound 34, 2-((benzothiazol-2-ylmethyl)thio)-6-ethoxybenzothiazole]
GLUT4myc
  period required to exert action on GLUT4myc translocation: 5 h
GLUT4myc; 25 μM of 34, insulin
  abundance of GLUT4myc in the plasma membrane: induces GLUT-4; also recorded: increased
L6 myotubes [1]
  minimal effective concentration, glucose uptake: 25 µM
  persistence of stimulatory effect on glucose uptake: up to 24 hours
  rate of glucose uptake in L6 myotubes (result in words): increase; also recorded: markedly augmented
L6 myotubes [1]; 100 nM wortmannin or 100 nM Akt/PKB inhibitor added 30 min before
  stimulatory effect on glucose uptake in the presence of wortmannin or Akt/PKB inhibitor: PI3K- and Akt/PKB-independent manner; also recorded: remained unaltered
L6 myotubes [1]; 25 μM of 34 (5 hours) plus insulin 100 nM (last 20 minutes)
  increase of rate of glucose uptake, combined effect with insulin: 148%±29%
L6 myotubes [1]; 25 μM of 34, last 5 hours, serum free, 23.0 mM D-glucose, without insulin
  increase of rate of glucose uptake: 75%±17%
L6 myotubes [1]; under similar experimental conditions (5 hours)
  increase of rate of glucose uptake: 2.5 fold
GLUT4
  total content of GLUT4 in myotubes: Neither compound altered
Diabetic KKAy mice [2]; 75 mg/kg s.c. twice daily, two days
  glucose tolerance (result in words): improved glucose tolerance; also recorded: significantly improved
Diabetic KKAy mice [2]; two days of treatment, overnight fast, glucose 1.5 g/kg i.p.
  IP-GTT area under the curve (AUC): 753.6±142.2 mmol glucose/l/min
Diabetic KKAy mice [2]; two-day treatment
  improvement of total body glucose clearance: 40%-50%
GLUT1
  total content of GLUT1 in myotubes: Neither compound altered
Diabetic KKAy mice [3]; 75 mg/kg s.c. twice daily
  normoglycemia: not reached
Diabetic KKAy mice [3]; day 1
  reduction of blood glucose: ~30%
Diabetic KKAy mice [3]; day 2
  reduction of blood glucose: ~45%
Diabetic KKAy mice [3]; day 3
  reduction of blood glucose: ~50%
AMPK; incubation time
  time to significant Thr172 phosphorylation of AMPK: ≤ 1 h

## CCC1SC(N)=NC1=O (stereo not shown) [Compound 3, 2-amino-5-ethylthiazol-4(5H)-one]
L6 myotubes [1]
  rate of glucose uptake in L6 myotubes (result in words): increase; also recorded: augmented
L6 myotubes [1]; 100 μM
  time of maximal glucose uptake stimulatory effect: ≤ 5 h
L6 myotubes [1]; 100 μM, basal rate = 100%
  rate of glucose uptake compared to vehicle (DMSO) treated control: 131.4%±6.8%
L6 myotubes [1]; Rattus norvegicus, L6, 100 μM, Mean ± SD (n = 3), Table 1, read-out: Effect on glucose uptake [100 μM] in L6 myotubes (%)
  activity at 100 µM: 131 ± 6.8%
L6 myotubes [1]; dose response, 5 h (3) or 12 h (4, 15)
  maximal effective concentration, glucose uptake: 100 µM
L6 myotubes [4]
  cytotoxic effects: cytotoxic effects
AMPK; 100 μM
  time of return of Thr172 phosphorylation to the basal hypo-phosphorylated level: 3 h
AMPK; L6 myotubes
  Thr172 phosphorylation in AMPK / AMPK activation (result in words): increased
AMPK; incubation time
  time of maximal (peak) Thr172 phosphorylation in AMPK: 40 min
